Here are results for 23 compounds from ChEMBL document CHEMBL3407376, “Identification of novel class of falcipain-2 inhibitors as potential antimalarial agents” (Bioorg Med Chem, 2015).

For orientation: IC50 means the concentration that gives 50% inhibition. For orientation: Ki means the equilibrium dissociation constant of an inhibitor or competing ligand from its target. As a reminder, the EC50 is the concentration giving half of the maximal effect. A low value points to greater potency.

For data set [1], the system named is Plasmodium falciparum. The experiment in a line: Antimalarial activity against Plasmodium falciparum 3D7 infected in human erythrocytes after 48 hrs by SYBR green assay. In kind it is functional, organism-based.
In a further data set the target is T1, Falcipain 2 (Plasmodium falciparum, UniProt Q9N6S8).
T1 sequence (Q9N6S8 whole entry): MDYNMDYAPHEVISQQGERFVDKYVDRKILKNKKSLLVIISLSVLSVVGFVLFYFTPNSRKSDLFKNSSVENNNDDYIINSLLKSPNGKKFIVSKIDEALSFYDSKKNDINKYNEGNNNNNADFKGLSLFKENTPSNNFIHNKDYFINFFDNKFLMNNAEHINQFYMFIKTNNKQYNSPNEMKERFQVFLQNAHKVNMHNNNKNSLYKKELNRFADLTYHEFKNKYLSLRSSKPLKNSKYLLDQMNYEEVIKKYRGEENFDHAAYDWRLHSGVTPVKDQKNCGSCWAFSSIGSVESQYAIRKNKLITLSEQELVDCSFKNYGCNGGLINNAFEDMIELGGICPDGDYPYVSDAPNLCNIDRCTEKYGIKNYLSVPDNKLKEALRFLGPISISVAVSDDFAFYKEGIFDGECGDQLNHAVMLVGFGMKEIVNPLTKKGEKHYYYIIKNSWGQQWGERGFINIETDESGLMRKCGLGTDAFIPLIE
The experiment in a line: Inhibition of Plasmodium falciparum recombinant falcipain-2 using ZFR-AMC as substrate after 30 mins by fluorometric assay.

Another data set concerns CHO. Description: Cytotoxicity against CHO cells after 24 hrs by WST-1 assay. In kind it is cell-based. As to conditions: Cricetulus griseus. On the technique in general: Tetrazolium dyes change colour on reduction, which living cells bring about.
The subject of data set [2] is Plasmodium falciparum. Description: Selectivity ratio of EC50 for Plasmodium falciparum 3D7 to EC50 for Plasmodium falciparum Dd2. The class given is functional.
The test system of data set [3] is Plasmodium falciparum. The experiment in a line: Antimalarial activity against asexual stage Plasmodium falciparum assessed as growth arrest at trophozoite stage after 32 to 60 hrs relative to control. The class given is functional, organism-based.
For data set [4], the system named is Plasmodium falciparum. Description: Antimalarial activity against Plasmodium falciparum isolate MCamp infected in human erythrocytes after 48 hrs by SYBR green assay. The class given is functional, organism-based.
Data set [5] has as its system Plasmodium falciparum. The experiment in a line: Antimalarial activity against asexual stage Plasmodium falciparum assessed as abnormal parasites after 60 hrs relative to control. In kind it is functional, organism-based.
The test system of data set [6] is Plasmodium falciparum. Description: Antimalarial activity against Plasmodium falciparum Dd2 infected in human erythrocytes after 48 hrs by SYBR green assay. In kind it is functional. The settings on record: Dd2, 48 h.
Data set [7] concerns Plasmodium falciparum. Description: Antimalarial activity against asexual stage Plasmodium falciparum assessed as morphological abnormalities after 32 to 46 hrs relative to control. In kind it is functional, organism-based.
Data set [8] deals with Plasmodium falciparum. The experiment in a line: Antimalarial activity against asexual stage Plasmodium falciparum assessed as abnormal food vacuole after 32 to 46 hrs relative to control. In kind it is functional, organism-based.
Data set [9] in a line: Selectivity ratio of IC50 for CHO cells to IC50 for Plasmodium falciparum. The class given is ADME, cell-based. As to conditions: hamster, read-out: Ratio IC50.
Data set [10] has as its system Plasmodium falciparum. The experiment in a line: Selectivity ratio of EC50 for Plasmodium falciparum isolate MCamp to EC50 for Plasmodium falciparum 3D7. The class given is functional.
The subject of data set [11] is Plasmodium falciparum. The experiment in a line: Selectivity ratio of EC50 for Plasmodium falciparum Dd2 to EC50 for Plasmodium falciparum 3D7. The class given is functional.
The mark [12] stands for this setting: Plasmodium falciparum, 3D7, 48 h, read-out: IC50.

Active and inactive are the calls of the source. No cut-off for these calls is given here.

As for `CC(C)C[C@H](NC(=O)[C@H](CC(C)C)NC(=O)N1CCOCC1)C(=O)N[C@@H](Cc1c[nH]c2ccccc12)C(=O)N1CCN=C1COc1ccc(F)cc1`, in the data set with Plasmodium falciparum [1] (setting [12]), the IC50 was above 5 µM. Besides, the Ki on Falcipain 2 turned out to be 1800 nM.
In the case of `CC(C)C[C@H](NC(=O)CN1CCC(O)CC1)C(=O)N[C@@H](CC(C)C)C(=O)N[C@@H](Cc1c[nH]c2ccccc12)C(=O)N1CCN=C1COc1ccc(F)cc1`, the IC50 in the data set with Plasmodium falciparum [1] (setting [12]) was found to be 10 µM. Besides, the Ki on Falcipain 2 worked out at 13600 nM.
Consider `CC(C)C[C@H](NC(=O)[C@H](CC(C)C)NC(=O)N1CCCCC1)C(=O)N[C@@H](Cc1ccccc1)C(=O)NNc1ccccc1`, for which the IC50 came to 99 µM in the data set with CHO and 14.2 µM with Plasmodium falciparum [1] (setting [12]). Moreover, the Ki at Falcipain 2 amounted to 800 nM.
In the same order, the values of `CC(C)C[C@H](NC(=O)c1ccco1)C(=O)N[C@@H](CC(C)C)C(=O)N[C@@H](Cc1ccccc1)C(=O)NNc1ccccc1` are 114 µM, 27.9 µM and 600 nM.
For the compound `CC(C)C[C@H](NC(=O)CN1CCC(O)CC1)C(=O)N[C@@H](CC(C)C)C(=O)N[C@@H](Cc1c[nH]c2ccccc12)C(=O)N1CCC[C@H]1COc1ccc(F)cc1`, the IC50 in the data set on Plasmodium falciparum [1] (setting [12]) was determined as 16.7 µM. Moreover, the Ki on Falcipain 2 stood at 2530 nM.
Regarding `CC(C)C[C@H](NC(=O)CN1CCC(CCO)CC1)C(=O)N[C@@H](CC(C)C)C(=O)N[C@H](C(=O)N1CCC[C@H]1COc1ccc(F)cc1)c1ccccc1`, the IC50 result with Plasmodium falciparum [1] is recorded as “Not Active”. Further, the Ki on Falcipain 2 is above 10000 nM.
As to `CC(C)C[C@H](NC(=O)CN1CCN(C)CC1)C(=O)N[C@@H](CC(C)C)C(=O)N[C@@H](Cc1c[nH]c2ccccc12)C(=O)N1CCN=C1COc1ccc(F)cc1`, in the data set with Plasmodium falciparum [1] (setting [12]), the concentration for half-maximal inhibition (IC50) was determined as 17.5 µM. Further, at Falcipain 2, the inhibitory constant (Ki) came to 10600 nM.
As for `CC(C)C[C@H](NC(=O)N1CCOCC1)c1nc(C(=O)N[C@@H](Cc2ccccc2)C(=O)N2CCC[C@H]2COc2ccc(F)cc2)co1`, the IC50 result in the data set on Plasmodium falciparum [1] was “Not Active”. Further, at Falcipain 2, the inhibition constant (Ki) was 8600 nM.
In the same order, the values of `CC(C)C[C@H](NC(=O)[C@H](CC(C)C)NC(=O)N1CCCCC1)C(=O)N[C@H](C(=O)N1CCC[C@H]1COc1ccc(F)cc1)c1ccccc1` are “Not Active” and 1300 nM.
On to `CC(C)C[C@H](NC(=O)CN1CCC(CCO)CC1)C(=O)N[C@@H](CC(C)C)C(=O)N[C@@H](Cc1c[nH]c2ccccc12)C(=O)N1CCN=C1COc1ccc(F)cc1`, for which the concentration for half-maximal inhibition (IC50) in the data set on Plasmodium falciparum [1] (setting [12]) was 18.8 µM. Further, the inhibitory constant (Ki) on Falcipain 2 came to 6200 nM.
Take `CC(C)C[C@H](NC(=O)CN1CCN(C)CC1)C(=O)N[C@@H](CC(C)C)C(=O)N[C@@H](Cc1c[nH]c2ccccc12)C(=O)N1CCC[C@H]1COc1ccc(F)cc1`: in the data set with Plasmodium falciparum [1], the IC50 result is reported as “Not Active”. For the same compound, the Ki on Falcipain 2 stood at 7490 nM.
On to `CC(C)C[C@H](NC(=O)[C@H](CC(C)C)NC(=O)N1CCOCC1)C(=O)N[C@@H](Cc1c[nH]c2ccccc12)C(=O)N1CCC[C@H]1COc1ccc(F)cc1`, for which the IC50 in the data set with Plasmodium falciparum [1] (setting [12]) amounted to 10 µM. Also, the Ki on Falcipain 2 is 400 nM.
`COc1ccc(OC[C@@H]2CCCN2C(=O)[C@H](Cc2ccccc2)NC(=O)[C@H](CC(C)C)NC(=O)[C@H](CC(C)C)NC(=O)N2CCCCC2)cc1`: the values for the IC50 in the data set on CHO and with Plasmodium falciparum [1] (setting [12]) were 40 µM and 35.7 µM, respectively. Also, the Ki at Falcipain 2 stood at 300 nM.
`CC(C)C[C@H](NC(=O)[C@H](CC(C)C)NC(=O)N1CCOCC1)C(=O)N[C@H](C(=O)N1CCN=C1COc1ccc(F)cc1)c1ccccc1`: the IC50 in the data set on Plasmodium falciparum [1] (setting [12]) was above 5 µM. For the same compound, at Falcipain 2, the Ki amounted to 7000 nM.
With `CC(C)C[C@H](NC(=O)[C@H](CC(C)C)NC(=O)N1CCOCC1)C(=O)N[C@@H](Cc1ccccc1)C(=O)N1CCC[C@H]1COc1ccc(F)cc1`, the results for the IC50 in the data set on CHO and with Plasmodium falciparum [1] (setting [12]) were 53 µM and 10.2 µM, respectively. The Ki at Falcipain 2 amounted to 300 nM.
On to `CC(C)C[C@H](NC(=O)[C@H](CC(C)C)NC(=O)N1CCCCC1)C(=O)N[C@H](C(=O)N1CCN=C1COc1ccc(F)cc1)c1ccccc1`, for which the “Ratio EC50” value in the data set with Plasmodium falciparum [2] is on record as 3. For the same compound, the outcome with Plasmodium falciparum [3] and in the data set with Plasmodium falciparum [5] was Active. Besides, the EC50 in the data set with Plasmodium falciparum [4] worked out at 1.2 µM; with Plasmodium falciparum [6] it was 1900 nM. In addition, the IC50 in the data set on Plasmodium falciparum [1] (setting [12]) worked out at 5.2 µM. Further, on Falcipain 2, the Ki was 800 nM.
Consider `COC(=O)C1CCN(CC(=O)N[C@@H](CC(C)C)C(=O)N[C@@H](CC(C)C)C(=O)N[C@@H](Cc2c[nH]c3ccccc23)C(=O)N2CCC[C@H]2COc2ccc(F)cc2)CC1`, for which the IC50 in the data set with CHO is above 500 µM; in the data set with Plasmodium falciparum [1] (setting [12]) it was 6.7 µM. At Falcipain 2, the Ki came to 4600 nM.
With `CC(C)C[C@H](NC(=O)CN1CCN(C)CC1)C(=O)N[C@@H](CC(C)C)C(=O)N[C@H](C(=O)N1CCC[C@H]1COc1ccc(F)cc1)c1ccccc1`, in the data set on Plasmodium falciparum [1], the IC50 entry is on record as “Not Active”. For the same compound, on Falcipain 2, the Ki was above 10000 nM.
As to `CC(C)C[C@H](NC(=O)[C@H](CC(C)C)NC(=O)N1CCCCC1)C(=O)N[C@@H](Cc1c[nH]c2ccccc12)C(=O)N1CCC[C@H]1COc1ccc(F)cc1`, in the data set with Plasmodium falciparum [1] (setting [12]), the half-maximal inhibitory concentration (IC50) worked out at 9.7 µM. In addition, at Falcipain 2, the Ki is 400 nM.
Regarding `CC(C)C[C@H](NC(=O)CN1CCC(CCO)CC1)C(=O)N[C@@H](CC(C)C)C(=O)N[C@@H](Cc1c[nH]c2ccccc12)C(=O)N1CCC[C@H]1COc1ccc(F)cc1`, the IC50 in the data set with Plasmodium falciparum [1] (setting [12]) was 6.7 µM. Further, the inhibitory constant (Ki) on Falcipain 2 turned out to be 3290 nM.
As for `COC(=O)C1CCN(CC(=O)N[C@@H](CC(C)C)C(=O)N[C@@H](CC(C)C)C(=O)N[C@H](C(=O)N2CCC[C@H]2COc2ccc(F)cc2)c2ccccc2)CC1`, the IC50 entry with Plasmodium falciparum [1] is listed as “Not Active”. For the same compound, the Ki on Falcipain 2 was above 100000 nM.
For the compound `CC(C)C[C@H](NC(=O)[C@H](CC(C)C)NC(=O)N1CCCCC1)C(=O)N[C@@H](Cc1c[nH]c2ccccc12)C(=O)N1CCN=C1COc1ccc(F)cc1`, the values for the IC50 in the data set with CHO and in the data set with Plasmodium falciparum [1] (setting [12]) were above 468 µM and 5.5 µM, respectively. In addition, the “Ratio EC50” value in the data set on Plasmodium falciparum [2] turned out to be 3. The result in the data set on Plasmodium falciparum [3], in the data set on Plasmodium falciparum [5], in the data set with Plasmodium falciparum [7] and in the data set with Plasmodium falciparum [8] was Active. Moreover, the EC50 was determined as 6.6 µM in the data set with Plasmodium falciparum [4] and 1700 nM with Plasmodium falciparum [6]. In addition, the Ki at Falcipain 2 stood at 200 nM.
In the case of `CC(C)C[C@H](NC(=O)[C@H](CC(C)C)NC(=O)N1CCOCC1)C(=O)N[C@H](C(=O)N1CCC[C@H]1COc1ccc(F)cc1)c1ccccc1`, the figures for the IC50 in the data set with CHO and in the data set with Plasmodium falciparum [1] (setting [12]) were 168 µM and 0.9 µM, respectively. Further, the result in the data set with Plasmodium falciparum [3] and in the data set on Plasmodium falciparum [5] was Active. Moreover, the selectivity ratio in data set [9] was 150. The EC50 worked out at 12.1 µM with Plasmodium falciparum [4] and 7500 nM in the data set with Plasmodium falciparum [6]. Besides, the “Ratio EC50” value with Plasmodium falciparum [10] and in the data set on Plasmodium falciparum [11] was 8 in each case. Besides, the Ki at Falcipain 2 turned out to be 1100 nM.
